Test results from patent US10765114B2, “4-amino-6-(pyridyl and 2-substitutedphenyl)-picolinates and 6-amino-2-(pyridyl and 2-substitutedphenyl)-pyrimidine-4-carboxylates and their use as herbicides” (Dow AgroSciences LLC, priority 2013, dated 2020).
Where two headings read alike, the source gives them in different places.

Key:
[1] = system: Key Grass and Sedge Weeds as well as Grass Crops; assay: Post-Emergent Test II (Table 6); format: in vivo; conditions: for Visual Growth Reduction (%) 14 Days After Application, CYPSS: CYPSS (CYPES: yellow nutsedge, Cyperus esculentus); for Visual Growth Reduction (%) 14 Days After Application, DIGSA: DIGSA: crabgrass (Digitaria sanguinalis); for Visual Growth Reduction (%) 14 Days After Application, ECHSS: ECHSS (ECHCG: barnyardgrass, Echinochloa crus-galli); for Visual Growth Reduction (%) 14 Days After Application, ORYSS: ORYSS (ORYSA: rice, Oryza sativa); for Visual Growth Reduction (%) 14 Days After Application, ORYSS / Visual Growth Reduction (%) 14 Days After Application, TRZSS / Visual Growth Reduction (%) 14 Days After Application, ZEAMX: crop; for Visual Growth Reduction (%) 14 Days After Application, SETFA: SETFA: giant foxtail (Setaria faberi); for Visual Growth Reduction (%) 14 Days After Application, SORVU: SORVU: johnsongrass (Sorghum vulgare); for Visual Growth Reduction (%) 14 Days After Application, TRZSS: TRZSS (TRZAS: wheat, spring, Triticum aestivum); for Visual Growth Reduction (%) 14 Days After Application, ZEAMX: ZEAMX: maize, corn (Zea mays)
Experimental: (§1) Seeds or nutlets of the desired test plant species were planted in Sun Gro Metro-Mix® 360 planting mixture, which typically has a pH of 6.0 to 6.8 and an organic matter content of about 30 percent, in plastic pots with a surface area of 64 square centimeters. When required to ensure good germination and healthy plants, a fungicide treatment and/or other chemical or physical treatment was applied. The plants were grown for 7-21 days in a greenhouse with an approximate 15 h photoperiod which was maintained at about 23-29° C. during the day and 22-28° C. during the night. Nutrients and water were added on a regular basis and supplemental lighting was provided with overhead metal halide 1000-Watt lamps as necessary. The plants were employed for testing when they reached the first or second true leaf stage.
(§2) A weighed amount, determined by the highest rate to be tested, of each test compound was placed in a 25 mL glass vial and was dissolved in 4 mL of a 97:3 v/v mixture of acetone and DMSO to obtain concentrated stock solutions. […] The concentrated stock solutions obtained were diluted with 20 mL of an aqueous mixture containing acetone, water, isopropyl alcohol, DMSO, Atplus 411F crop oil concentrate, and Triton® X-155 surfactant in a 48.5:39:10:1.5:1.0:0.02 v/v ratio to obtain spray solutions containing the highest application rates. Additional application rates were obtained by serial dilution of 12 mL of the high rate solution into a solution containing 2 mL of 97:3 v/v mixture of acetone and DMSO and 10 mL of an aqueous mixture containing acetone, water, isopropyl alcohol, DMSO, Atplus 411F crop oil concentrate, and Triton X-155 surfactant in a 48.5:39:10:1.5:1.0:0.02 v/v ratio to obtain ½×, ¼×, ⅛× and 1/16× rates of the high rate. Compound requirements are based upon a 12 mL application volume at a rate of 187 liters per hectare (L/ha). Formulated compounds were applied to the plant material with an overhead Mandel track sprayer equipped with 8002E nozzles calibrated to deliver 187 L/ha over an application area of 0.503 square meters at a spray height of 18 inches (43 cm) above the average plant canopy height. Control plants were sprayed in the same manner with the solvent blank.
(§3) The treated plants and control plants were placed in a greenhouse as described above and watered by subirrigation to prevent wash-off of the test compounds. After 14 days, the condition of the test plants as compared with that of the untreated plants was determined visually and scored on a scale of 0 to 100 percent where 0 corresponds to no injury and 100 corresponds to complete kill and presented as indicated in Table A. Some of the compounds tested, application rates employed, plant species tested, and results are given in Table 5.

[2] = system: Key Broadleaf Weed and Crop Species; assay: Post-Emergent Test II (Table 5); format: in vivo; conditions: post-emergence, 336 h; for pest or weed control at 70 g/ha: application rate 70 (kg ai/ha; footnote: g ai/ha); for pest or weed control at 140 g/ha: application rate 140 (kg ai/ha; footnote: g ai/ha)
Experimental: as §1, §2, §3

[3] = Abutilon theophrasti, ABUTH: velvetleaf (Abutilon theophrasti), read-out: Visual Growth Reduction (%) 14 Days After Application ABUTH
[4] = Amaranthus retroflexus, AMARE: redroot pigweed (Amaranthus retroflexus), read-out: Visual Growth Reduction (%) 14 Days After Application AMARE
[5] = Brassica napus, BRSSS: oilseed rape, canola (Brassica napus), read-out: Visual Growth Reduction (%) 14 Days After Application BRSSS
[6] = Chenopodium album, CHEAL: lambsquarters (Chenopodium album), read-out: Visual Growth Reduction (%) 14 Days After Application CHEAL
[7] = Euphorbia heterophylla, EPHHL: wild poinsettia (Euphorbia heterophylla), read-out: Visual Growth Reduction (%) 14 Days After Application EPHHL
[8] = Helianthus annuus, HELAN: sunflower (Helianthus annuus), read-out: Visual Growth Reduction (%) 14 Days After Application HELAN
[9] = Viola tricolor, VIOTR: wild pansy (Viola tricolor), read-out: Visual Growth Reduction (%) 14 Days After Application VIOTR

COC(=O)c1nc(-c2ccc(Cl)c(F)c2Cl)nc(N)c1OC [Compound 42, Methyl 6-amino-2-(2,4-dichloro-3-fluorophenyl)-5-methoxypyrimidine-4-carboxylate]
Visual Growth Reduction (%) 14 Days After Application, CYPSS ([1]; 70 g ai/ha): A (95-100) | Visual Growth Reduction (%) 14 Days After Application, CYPSS ([1]; 140 g ai/ha): A (95-100) | Visual Growth Reduction (%) 14 Days After Application, DIGSA ([1]; 70 g ai/ha): G (0-29) | Visual Growth Reduction (%) 14 Days After Application, DIGSA ([1]; 140 g ai/ha): G (0-29) | Visual Growth Reduction (%) 14 Days After Application, ECHSS ([1]; 70 g ai/ha): G (0-29) | Visual Growth Reduction (%) 14 Days After Application, ECHSS ([1]; 140 g ai/ha): G (0-29) | Visual Growth Reduction (%) 14 Days After Application, ORYSS ([1]; 70 g ai/ha): G (0-29) | Visual Growth Reduction (%) 14 Days After Application, ORYSS ([1]; 140 g ai/ha): G (0-29) | Visual Growth Reduction (%) 14 Days After Application, SETFA ([1]; 70 g ai/ha): G (0-29) | Visual Growth Reduction (%) 14 Days After Application, SETFA ([1]; 140 g ai/ha): G (0-29) | Visual Growth Reduction (%) 14 Days After Application, SORVU ([1]; 70 g ai/ha): G (0-29) | Visual Growth Reduction (%) 14 Days After Application, SORVU ([1]; 140 g ai/ha): F (30-44) | Visual Growth Reduction (%) 14 Days After Application, TRZSS ([1]; 70 g ai/ha): F (30-44) | Visual Growth Reduction (%) 14 Days After Application, TRZSS ([1]; 140 g ai/ha): E (45-59) | Visual Growth Reduction (%) 14 Days After Application, ZEAMX ([1]; 70 g ai/ha): G (0-29) | Visual Growth Reduction (%) 14 Days After Application, ZEAMX ([1]; 140 g ai/ha): G (0-29) | pest or weed control at 70 g/ha [2, 3]: 95 to 100% | pest or weed control at 140 g/ha [2, 3]: 95 to 100% | pest or weed control at 70 g/ha [2, 4]: 95 to 100% | pest or weed control at 140 g/ha [2, 4]: 95 to 100% | pest or weed control at 70 g/ha [2, 5]: 95 to 100% | pest or weed control at 140 g/ha [2, 5]: 95 to 100% | pest or weed control at 70 g/ha [2, 6]: 95 to 100% | pest or weed control at 140 g/ha [2, 6]: 95 to 100% | pest or weed control at 70 g/ha [2, 7]: 30 to 44% | pest or weed control at 140 g/ha [2, 7]: 60 to 74% | pest or weed control at 70 g/ha [2, 8]: 85 to 94% | pest or weed control at 140 g/ha [2, 8]: 85 to 94% | pest or weed control at 70 g/ha [2, 9]: 60 to 74% | pest or weed control at 140 g/ha [2, 9]: 60 to 74%
